Reference: US9457056B2, “Peptides comprising alternating hydrophobic and anionic amino acids for treatment of osteoporosis” (Ben-Gurion University of the Negev Research and Development …, priority 2007, dated 2016)
Entries after “also recorded” stand apart in the source; their conditions may differ. Ends that are not written are not given here.

What was measured:
[1] = Effect of Ca+2 ions on hydrogel formation; type: physicochemical; parameters: key: Hydrogel formation (✓); * partial formation of hydrogel over hours; conditions: peptide final concentration 1.34% weight
Procedure: With the addition of Ca^+2 ions to the solution of the peptide the system may form a hydrogel. These hydrogels are obtained at peptide concentrations smaller and at pH values higher than those without the ions. […] It is possible that the Ca^+2 may also induce cross linking between strands in a mechanism similar to that of alginate hydrogel formation. The concentration of Ca^+2 ions in the hydrogel are a few times larger than in the body serum (2.5 mM). This is envisaged to yield a better environment for the bone forming osteoblast cells. In any event, the Ca^+2 provides an additional parameter to control the hydrogel rheological and stability properties.
Peptides, 2% (w/v) in the liquid state were dissolved in 0.05 M NaOH to yield 7.0<pH<7.5 solution.

[2] = Formation of hydrogels by additional peptides; type: physicochemical; conditions: 4% weight in 100 μl NaOH solution
Description: Additional peptides were studies in order to elucidate the role of termini Proline residue in hydrogel formation, to test the effect of peptide length and peptide termini protecting groups.

Sprague-Dawley rats [3] = experiment: In vivo toxicity, single subcutaneous administration of hydrogel
Procedure: A control group was injected with saline. Rats were sacrificed after 14 days. Hematology and biochemistry blood tests were performed, the injected area was excised and examined as well as other internal organs.

Sprague-Dawley rats [4] = experiment: Antigenicity (immunity) test, single intramuscular administration of hydrogel; type: in vivo, rat; conditions: single i.m. hydrogel, 7.5 times maximum estimated human dose, 14 days
Procedure: Immunity tests were performed to determine the safety of the compositions of the present invention. […] The control group was injected with saline. Rats were scarified after 14 days, blood was withdrawn for future hematology and biochemistry tests.

human stomach = conditions: healthy volunteers, doses prescribed for osteoporosis and Pagets disease of bone; cited from earlier work
SaOS2 cells = experiment: Quantitative evaluation of SaOS2 growth on 2D hydrogels (LIVE/DEAD Viability/Cytotoxicity Kit); type: cell-based; conditions: 3% w/v hydrogel, vs uncoated wells
Procedure: On 2D hydrogels: Quantitative studies of cell proliferation were performed in 2D systems of PFD-13 (3% w/v) hydrogels that were formed with DMEM+bicarbonate at pH ˜7.0 in 96-wells plates.
The plates were sterilized by gamma irradiation (5000 rad). 50 μl of culture media were pipette on top of each hydrogel for conditioning. After 1 h at room temp, SaOS2 cells were seeded on top of the hydrogels. Single cell suspensions obtained after trypsinization which diluted to concentration of 1×10^5 cells/1 ml. 50 μl of this cell suspension was seeded on top of each hydrogel. Triplicates of none coated wells were seeded and served as control. After 1 h of incubation, medium was added to complete the volume to 200 μl in each well ([…] and 150 μl in the uncoated wells). Culture medium was exchanged twice a week. Viability of the cells was evaluated every week, over a month, using the LIVE/DEAD Viability/Cytotoxicity Kit (Molecular Probes, Invitrogen, France) following the manufacturer's instructions. […] Ethidium-III enters dead cells with damaged membranes and undergoes a 40-fold enhancement of fluorescence upon binding to their DNA, leading to a red fluorescent signal. The plates were measured in a plate reader (calcein: Ex=495 nm, Em=515 nm. ethidium: Ex=530 nm, Em=635 nm). After measuring the medium fluorescence, the gain was set constant for each probe. […]

[5] = single s.c. hydrogel, about 10 times clinically relevant amount

Molecule | Hydrogel formation upon the addition of CaCl2 sol. ([1]; Ca+2 final concentration 20 mM) | Hydrogel formation upon the addition of CaCl2 sol. ([1]; Ca+2 final concentration 27 mM) | Hydrogel formation upon the addition of CaCl2 sol. ([1]; Ca+2 final concentration 33 mM) | Resultant pH ([2]; NaOH conc. 0.03) | Resultant pH ([2]; NaOH conc. 0.05) | Self supporting gel formation assigned + ([2]; NaOH conc. 0.05) | further results
PDLDLDLDLDLDP [PLD-13, PD(LD)5P] | * | * | * | – | – | – | –
PEFEFEFEFEFEP [PFE-13, PE(FE)5P] | ✓ | ✓ | ✓ | – | – | – | –
Ac-PDFDFDFDFDFDP-NH2 [Ac-Pro-Asp-(Phe-Asp)5-Pro-NH2] | – | – | – | ~6 | >7.5 | Viscous liquid | Levels of LDH (Sprague-Dawley rats [3]; rats sacrificed after 7 days): slightly high levels; Levels of LDH (Sprague-Dawley rats [3]; rats sacrificed after 14 days): normal; Behavior (Sprague-Dawley rats [3]; [5]): no signs of abnormal behavior; Body weight compared to control group (Sprague-Dawley rats [3]; [5]): did not lose weight; Internal organs (Sprague-Dawley rats [3]; [5]): appeared normal; Survival (Sprague-Dawley rats [3]; [5]): All rats survived; Appearance during the experiment (Sprague-Dawley rats [4]): appeared normal; Survival (Sprague-Dawley rats [4]): All rats survived
Pro-Asp-Phe-Asp (PDFD; printed: Pro-Asp-Phe-Asp) | – | – | – | ~3 | ~4 | liquid | Self supporting gel formation assigned + ([2]; NaOH conc. 0.03): liquid
NCCCC(O)(P(=O)(O)O)P(=O)(O)O [Alendronate, alendronate] | – | – | – | – | – | – | Gastric injury (human stomach): cause erosions and ulcers in the human stomach
Pro-Asp-(Phe-Asp)6 (chain 1 PDFDFDFDFDFDFD; chain 2 PDFDFDFDFDFDFD) | – | – | – | ~6 | ~7 | after several hrs. | –
(Phe-Asp)6 (chain 1 FDFDFDFDFDFD; chain 2 FDFDFDFDFDFD) | – | – | – | ~6 | ~7 | – | –
PELELELELELEP [PLE-13, PE(LE)5P] | ✓ | ✓ | ✓ | – | – | – | –
PDFDFDFDFDFDP [PFD-13, PD(FD)5P] | – | ✓ | ✓ | – | – | – | Cytotoxicity (EthD-III staining) (SaOS2 cells): not significant; also recorded: non toxic to the cells
